# Measurements: US20240342239A1, “TREATMENT OF NON-CYSTIC FIBROSIS BRONCHIECTASIS” (Zambon S.P.A., priority 2021, published 2024)
# “Also recorded” adds a separate entry of the source.
# Assays:
# NCFB patients = details: cited from earlier work
# [1] = tested on: subjects with NCFB chronically infected with P. aeruginosa; assay: PROMIS 1 Phase III clinical study: NCFB pulmonary exacerbations, inhaled CMS via I-neb vs placebo; format: in vivo, human; details: for hazard ratio, time to first NCFB pulmonary exacerbation: CMS vs placebo, Cox proportional hazard model; for rate ratio of CMS relative to placebo, NCFB pulmonary exacerbation annual rate: LS Mean
# Protocol: As used herein the term “pulmonary exacerbation” in a patient refers to the presence concurrently of at least 3 of the following 8 symptoms/signs for at least 24 hours: • increased cough; • increased sputum volume and/or consistency; • increased sputum purulence; • new or increased haemoptysis; • increased wheezing; • increased dyspnoea; • increased fatigue/malaise; • episodes of fever (temperature≥38° C.) • and it is clinically determined that the subject requires and is prescribed systemic antibiotic therapy. A new pulmonary exacerbation is only considered to occur if there are at least 14 days between the end of the course of systemic antibiotics and the onset of new qualifying symptoms. (Note: A pulmonary exacerbation is reported as an Adverse Event or serious AE [SAE]).
# A “severe” pulmonary exacerbation is herein defined a pulmonary exacerbation requiring intravenous antibiotics and/or hospitalisation.
# A supportive analysis has been conducted using an alternative definition of NCFB pulmonary exacerbation. The re-classification of exacerbations has been conducted in a blinded fashion (before database lock). The alternative definition of pulmonary exacerbations used will be deterioration in three or more of the following key symptoms for at least 48 hours: • Cough • Sputum volume and/or consistency • Sputum purulence • Breathlessness and/or exercise tolerance (dyspnoea) • Fatigue and/or malaise • Haemoptysis • And: • a physician determines a change in bronchiectasis treatment is required when other potential causes of clinical deterioration have been discounted.
# The number of NCFB pulmonary exacerbations during the treatment period has been analysed using a Poisson regression model allowing for over-dispersion including treatment, pooled sites and use of stable concomitant therapy with oral macrolides as fixed effects and log-time on trial as an offset.
# The number and the percentage of subjects with NCFB pulmonary exacerbations, the number of pulmonary exacerbations and the total follow-up time in years have been summarised by treatment group. The adjusted yearly mean exacerbation rates in each treatment group and the adjusted rate ratio with their 95% CIs has been estimated by the model.
# For the analysis, 2 pulmonary exacerbations have been considered as a single episode in cases where the second exacerbation starts less than 14 days after the end of the antibiotic therapy (oral or intravenous) for the first pulmonary exacerbation.
# The time to the first NCFB pulmonary exacerbation and the time to the first severe NCFB pulmonary exacerbation has been calculated as the time in days from the date of the first dose of IMP to the date at which the first pulmonary exacerbation occurs (i.e. date at which the first pulmonary exacerbation occurs—date of the first dose+1). A […] has been used to compare the treatment groups. Subjects completing the trial without NCFB pulmonary exacerbations or who are discontinued prematurely without exacerbations, will be considered as censored at the time of their last follow-up. […]
# The primary variable for this trial is the mean annual NCFB pulmonary exacerbation rate (frequency of pulmonary exacerbations) over 12 months.
# [2] = tested on: subjects with NCFB chronically infected with P. aeruginosa; assay: PROMIS 1: quality of life by Saint George's Respiratory Questionnaire (SGRQ); format: in vivo, human; details: at the end of the CMS treatment
# Text: The SGRQ total score and domain scores (Symptoms, Activity and Impact scores) has been summarised at each visit by treatment group using descriptive statistics. Changes from baseline (Visit 2) have been also summarised for each post-baseline visit by treatment group. Scores have been computed according to the SGRQ manual.
# SGRQ total score has been analysed using a linear mixed model for repeated measures including treatment, visit, treatment-by-visit interaction, use of stable concomitant therapy with oral macrolides and pooled sites as fixed effects and baseline value as covariate. An unstructured covariance matrix has been assumed and the Kenward-Roger adjustment has been used for the degrees of freedom. The least square means in each treatment group, the least square mean differences between treatments, their 95% CIs and associated p-values at each visit will be estimated by the model.
# It is described e.g. in U.S. Pat. No. 6,367,470.
# Pseudomonas aeruginosa = assay: PROMIS 1: P. aeruginosa density in sputum; format: in vivo; details: for Mean change from baseline in P. aeruginosa density: mITT
# Text: Least square means in each treatment group, least square mean difference between treatments, their 95% CIs and associated p-values have been estimated.
# Summary statistics of the P. aeruginosa density (log 10 CFU/g sputum) and change from baseline (Visit 2) will be provided by treatment group for each trial visit.
# Results of the quantitative analysis for P. aeruginosa density will be presented as colony forming units (CFU) count per gram sputum.
# [3] = tested on: bronchiectasis patients with P. aeruginosa; details: cited from earlier work; for time to first exacerbation compared to placebo: 1 MU twice daily through the I-neb, up to 6 months (PPCTP/001, Haworth 2014)
# [4] = sensitivity analysis, alternative definition of exacerbation
compound,measurement,setting,value
O=C(O)c1cn(C2CC2)c2cc(N3CCNCC3)c(F)cc2c1=O [ciprofloxacin],"trial outcome, primary endpoints",NCFB patients; ORBIT-3 and RESPIRE-2 trials,failed to achieve their primary endpoints
same,"trial outcome, time of first exacerbation and rate of exacerbations vs placebo",NCFB patients; ORBIT-4 and RESPIRE-1 trials,showed clinical benefit
colistimethate sodium [CMS],subjects with severe NCFB pulmonary exacerbations,[1]; 19/176 subjects,10.8%
same,LS mean NCFB pulmonary exacerbation annual rate,[1]; PP Population,0.491
same,LS mean rate ratio of CMS relative to placebo,[1]; PP Population,0.583
same,reduction in pulmonary exacerbation rate vs placebo,[1]; PP Population,42%
same,mean annual exacerbation rate (LS Mean),[1]; adherent subjects (adherence>80%),0.494
same,"median time to first severe NCFB pulmonary exacerbation, 25th and 75th percentile","[1]; human, in vivo",not reached
same,reduction in the rate of severe pulmonary exacerbations compared to placebo,"[1]; human, in vivo",59%
same,reduction in the risk of the first exacerbation event compared to placebo,[1]; mITT,41%
same,annual rate of exacerbations,"[1]; mITT, CMS 1 MIU by I-neb twice a day, 12 months",0.58 per patient per year
same,"hazard ratio, time to first NCFB pulmonary exacerbation",[1]; mITT,0.590
same,"hazard ratio, time to first NCFB pulmonary exacerbation","[1]; mITT, listed as CMS I-neb",0.59
same,median time to first NCFB pulmonary exacerbation,"[1]; mITT, from first dose of IMP",not reached
same,subjects who experienced a pulmonary exacerbation during the study,"[1]; mITT, n=68",38.6%
same,reduction in the annual rate of pulmonary exacerbations relative to placebo,"[1]; mITT, primary analysis",39%
same,"rate ratio of CMS relative to placebo, NCFB pulmonary exacerbation annual rate","[1]; mITT, primary analysis",0.612
same,"rate ratio of CMS relative to placebo, NCFB pulmonary exacerbation annual rate","[1]; mITT, primary analysis, listed as CMS I-neb",0.61
same,"LS Mean rate ratio, pulmonary exacerbations",[1]; post-hoc analyses with low-recruiting countries combined,0.591
same,LS mean NCFB pulmonary exacerbation annual rate,"[1]; sensitivity analysis, alternative (ERS 2017) definition of exacerbation, mITT",0.538
same,LS mean rate ratio of CMS relative to placebo,[1]; [4],0.642
same,reduction in pulmonary exacerbation rate vs placebo,[1]; [4],36%
same,LS Mean severe NCFB pulmonary exacerbation annual rate,[1]; severe = requiring intravenous antibiotics and/or hospitalisation,0.116
same,"LS Mean rate ratio of CMS relative to placebo, severe exacerbations",[1]; severe NCFB pulmonary exacerbations,0.409
same,treatment difference in SGRQ total score by LS means,[2],4.552
same,"LS mean difference in P. aeruginosa density, CMS vs placebo",Pseudomonas aeruginosa; after 1 month,−1.620
same,Mean change from baseline in P. aeruginosa density,Pseudomonas aeruginosa; Visit 3 (28 days),−1.59 log10(CFU/mL)
same,Mean change from baseline in P. aeruginosa density,Pseudomonas aeruginosa; Visit 5 (6 months),−1.39 log10(CFU/mL)
same,Mean change from baseline in P. aeruginosa density,Pseudomonas aeruginosa; Visit 6 (9 months),−1.56 log10(CFU/mL)
same,Mean change from baseline in P. aeruginosa density,Pseudomonas aeruginosa; Visit 7 (12 months/EOT),−0.86 log10(CFU/mL)
same,course of P. aeruginosa density under treatment,Pseudomonas aeruginosa; over the study,fell rapidly and remained suppressed; also recorded: falls rapidly and remains suppressed
same,time to first exacerbation compared to placebo,[3],not statistically different from the placebo group
same,"frequency of adverse respiratory effects (cough, dyspnoea, bronchospasm, sore throat)","[3]; human, in vivo",at least 1 in 10 people
same,admissions to emergency and days of hospitalization,"[3]; observational study, 44 patients, 6 or 12 months, vs period preceding treatment (Lopez Gil Otero 2019)",reduced admissions to emergency and days of hospitalization
colistin,time to first exacerbation compared to placebo,[3],not to be associated with a statistically significant improvement
